One assay addresses T1, CRF2R (Homo sapiens, UniProt Q13324).
T1 sequence (Q13324 1-411): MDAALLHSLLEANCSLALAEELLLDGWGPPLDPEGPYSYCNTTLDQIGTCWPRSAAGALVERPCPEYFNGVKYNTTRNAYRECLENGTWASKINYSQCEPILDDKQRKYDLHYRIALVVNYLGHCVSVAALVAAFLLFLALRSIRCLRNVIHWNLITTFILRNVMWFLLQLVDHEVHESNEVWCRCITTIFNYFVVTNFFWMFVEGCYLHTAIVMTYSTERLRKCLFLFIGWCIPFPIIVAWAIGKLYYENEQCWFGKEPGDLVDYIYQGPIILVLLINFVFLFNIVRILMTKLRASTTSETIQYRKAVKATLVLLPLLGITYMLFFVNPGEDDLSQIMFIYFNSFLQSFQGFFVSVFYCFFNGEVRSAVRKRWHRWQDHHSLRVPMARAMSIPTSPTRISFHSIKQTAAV
Briefly: CRF2R agonist activation (EC50 / Emax), called comparative CRF binding. As to conditions: for EC50: read-out: CRF2R EC50; for Emax: read-out: CRF2R Emax. The format is cell-based. The method in brief:
(§1)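 Read-out is Gαs-driven cAMP induction, quantified directly in lysates or through CRE-reporter gene expression, after treating CRF1R- or CRF2R-expressing cells with peptide. Vehicle-treated cells serve as the comparison.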

A further assay has as its target T2, CRF1R (Homo sapiens, UniProt P34998).
T2 sequence (P34998 24-415): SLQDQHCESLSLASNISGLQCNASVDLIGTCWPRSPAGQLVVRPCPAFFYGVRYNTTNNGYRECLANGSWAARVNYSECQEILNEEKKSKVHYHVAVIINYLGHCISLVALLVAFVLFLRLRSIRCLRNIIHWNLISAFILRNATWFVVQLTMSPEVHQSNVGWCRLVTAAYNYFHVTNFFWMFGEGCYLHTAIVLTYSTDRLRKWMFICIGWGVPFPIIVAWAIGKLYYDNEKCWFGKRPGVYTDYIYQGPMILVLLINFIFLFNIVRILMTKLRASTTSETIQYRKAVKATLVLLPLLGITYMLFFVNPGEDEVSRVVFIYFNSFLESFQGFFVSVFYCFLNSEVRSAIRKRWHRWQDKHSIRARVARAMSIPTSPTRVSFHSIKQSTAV
Briefly: CRF1R agonist activation (EC50 / Emax), called comparative CRF binding. The format is cell-based. The conditions noted are these: for EC50: read-out: CRF1R EC50; for Emax: read-out: CRF1R Emax. The method in brief:
as §1

Peptide text beside a SMILES is read from it. Bounds are passed on as bounds.

This passage reports EC50 and Emax results from patent US6936585B2, “Corticotropin releasing factor 2 receptor agonists” (priority 2002, dated 2005).

Regarding `CC[C@H](C)[C@H](NC(=O)[C@H](CCCNC(=N)N)NC(=O)[C@H](C)NC(=O)[C@H](CC(N)=O)NC(=O)[C@H](CCC(N)=O)NC(=O)[C@H](CCC(=O)O)NC(=O)[C@H](C)NC(=O)[C@H](CCCNC(=N)N)NC(=O)[C@H](CCC(=O)O)NC(=O)[C@H](CCCNC(=N)N)NC(=O)[C@H](CCC(N)=O)NC(=O)[C@H](CO)NC(=O)[C@H](CCC(N)=O)NC(=O)[C@@H](NC(=O)[C@H](CCCCN)NC(=O)[C@H](CCC(=O)O)NC(=O)[C@H](CC(C)C)NC(=O)[C@H](CCC(=O)O)NC(=O)[C@H](CC(C)C)NC(=O)[C@H](CC(C)C)NC(=O)[C@@H](NC(=O)[C@H](CCCNC(=N)N)NC(=O)[C@H](CC(C)C)NC(=O)[C@H](CC(C)C)NC(=O)[C@H](CC(C)C)NC(=O)[C@H](CC(C)C)NC(=O)[C@@H]1CCCN1C(=O)[C@H](CC(C)C)NC(=O)[C@H](CC(=O)O)NC(=O)[C@@H](NC(=O)[C@H](CO)NC(=O)[C@H](CC(C)C)NC(=O)[C@H](CO)NC(=O)[C@@H]1CCCN1)[C@@H](C)CC)[C@@H](C)O)[C@@H](C)O)C(=O)N[C@@H](Cc1ccccc1)C(=O)N[C@@H](C)C(=O)N[C@@H](CCCNC(=N)N)C(=O)N[C@H](C(N)=O)C(C)C` [compound 333] (H-PSLSIDLPLLLLRTLLELEKTQSQRERAEQNARIFARV-NH2; N-terminus assumed), on CRF2R, the concentration giving a half-maximal response (EC50) amounted to 0.00985 µM and the Emax turned out to be 96.9%. Also, on CRF1R, the EC50 was no less than 1 µM and the maximal effect (Emax) was found to be 43.8%.
On to `CC[C@H](C)[C@H](NC(=O)[C@H](CCCNC(=N)N)NC(=O)[C@H](C)NC(=O)[C@H](CC(N)=O)NC(=O)[C@H](CCC(N)=O)NC(=O)[C@H](CCC(=O)O)NC(=O)[C@H](C)NC(=O)[C@H](CCCNC(=N)N)NC(=O)[C@H](CCC(=O)O)NC(=O)[C@H](CCCNC(=N)N)NC(=O)[C@H](CCC(N)=O)NC(=O)[C@H](CO)NC(=O)[C@H](CCC(N)=O)NC(=O)[C@@H](NC(=O)[C@H](CCCCN)NC(=O)[C@H](CCC(=O)O)NC(=O)[C@H](CC(C)C)NC(=O)[C@H](CCC(=O)O)NC(=O)[C@H](CC(C)C)NC(=O)[C@H](CC(C)C)NC(=O)[C@@H](NC(=O)[C@H](CCCNC(=N)N)NC(=O)[C@H](CC(C)C)NC(=O)[C@H](CC(C)C)NC(=O)[C@H](Cc1ccccc1)NC(=O)[C@H](CC(C)C)NC(=O)[C@@H]1CCCN1C(=O)[C@H](CC(C)C)NC(=O)[C@H](CC(=O)O)NC(=O)[C@@H](NC(=O)[C@H](CO)NC(=O)[C@H](CC(C)C)NC(=O)[C@H](CO)NC(=O)[C@@H]1CCCN1C(=O)[C@H](CC(N)=O)NC(=O)[C@@H](N)CC(=O)O)[C@@H](C)CC)[C@@H](C)O)[C@@H](C)O)C(=O)N[C@@H](Cc1ccccc1)C(=O)N[C@@H](C)C(=O)N[C@@H](CCCNC(=N)N)C(=O)N[C@H](C(N)=O)C(C)C` [compound 334] (H-DNPSLSIDLPLFLLRTLLELEKTQSQRERAEQNARIFARV-NH2; N-terminus assumed), for which, at CRF2R, the EC50 is 0.0132 µM and the Emax is 93.5%. Besides, on CRF1R, the EC50 is no less than 1 µM and the Emax came out at 82.6%.
For `CC[C@H](C)[C@H](NC(=O)[C@H](CCCNC(=N)N)NC(=O)[C@H](C)NC(=O)[C@H](CC(N)=O)NC(=O)[C@H](CCC(N)=O)NC(=O)[C@H](CCC(=O)O)NC(=O)[C@H](C)NC(=O)[C@H](CCCNC(=N)N)NC(=O)[C@H](CCC(=O)O)NC(=O)[C@H](CCCNC(=N)N)NC(=O)[C@H](CCC(N)=O)NC(=O)[C@H](CO)NC(=O)[C@H](CCC(N)=O)NC(=O)[C@@H](NC(=O)[C@H](CCCCN)NC(=O)[C@H](CCC(=O)O)NC(=O)[C@H](CC(C)C)NC(=O)[C@H](CCC(=O)O)NC(=O)[C@H](CC(C)C)NC(=O)[C@H](CC(C)C)NC(=O)[C@@H](NC(=O)[C@H](CCCNC(=N)N)NC(=O)[C@H](CC(C)C)NC(=O)[C@H](CC(C)C)NC(=O)[C@@H](NC(=O)[C@H](CC(C)C)NC(=O)[C@@H]1CCCN1C(=O)[C@H](CC(C)C)NC(=O)[C@H](CC(=O)O)NC(=O)[C@@H](NC(=O)[C@H](CO)NC(=O)[C@H](CC(C)C)NC(=O)[C@H](CO)NC(=O)[C@@H]1CCCN1C(=O)[C@H](CC(N)=O)NC(=O)[C@@H](N)CC(=O)O)[C@@H](C)CC)[C@@H](C)CC)[C@@H](C)O)[C@@H](C)O)C(=O)N[C@@H](Cc1ccccc1)C(=O)N[C@@H](C)C(=O)N[C@@H](CCCNC(=N)N)C(=O)N[C@H](C(N)=O)C(C)C` [compound 335] (H-DNPSLSIDLPLILLRTLLELEKTQSQRERAEQNARIFARV-NH2; N-terminus assumed), the values for the concentration giving a half-maximal response (EC50) at CRF2R and on CRF1R were 0.028 µM and no less than 1 µM, respectively. Besides, the maximal response (Emax) on CRF2R was 91%; on CRF1R, 49.5%.
`CC[C@H](C)[C@H](NC(=O)[C@H](CCCNC(=N)N)NC(=O)[C@H](C)NC(=O)[C@H](CC(N)=O)NC(=O)[C@H](CCC(N)=O)NC(=O)[C@H](CCC(=O)O)NC(=O)[C@H](C)NC(=O)[C@H](CCCNC(=N)N)NC(=O)[C@H](CCC(=O)O)NC(=O)[C@H](CCCNC(=N)N)NC(=O)[C@H](CCC(N)=O)NC(=O)[C@H](CO)NC(=O)[C@H](CCC(N)=O)NC(=O)[C@@H](NC(=O)[C@H](CCCCN)NC(=O)[C@H](CCC(=O)O)NC(=O)[C@H](CC(C)C)NC(=O)[C@H](CCC(=O)O)NC(=O)[C@H](CC(C)C)NC(=O)[C@H](CC(C)C)NC(=O)[C@@H](NC(=O)[C@H](CCCNC(=N)N)NC(=O)[C@H](CC(C)C)NC(=O)[C@H](CC(C)C)NC(=O)[C@H](Cc1ccccc1)NC(=O)[C@H](CC(C)C)NC(=O)[C@@H]1CCCN1C(=O)[C@H](CC(C)C)NC(=O)[C@H](CC(=O)O)NC(=O)[C@@H](NC(=O)[C@H](CO)NC(=O)[C@H](CC(C)C)NC(=O)[C@H](CO)NC(=O)[C@@H]1CCCN1C(=O)[C@H](CC(N)=O)NC(=O)[C@@H](N)CC(=O)O)[C@@H](C)CC)[C@@H](C)O)[C@@H](C)O)C(=O)N[C@@H](Cc1ccccc1)C(=O)N[C@@H](CC(=O)O)C(=O)N[C@@H](CCCNC(=N)N)C(=O)N[C@H](C(N)=O)C(C)C` [compound 336] (H-DNPSLSIDLPLFLLRTLLELEKTQSQRERAEQNARIFDRV-NH2; N-terminus assumed): the results for the maximal effect (Emax) on CRF2R and on CRF1R were 100% and 59.9%, respectively.
Take `CC[C@H](C)[C@H](NC(=O)[C@H](CCCNC(=N)N)NC(=O)[C@H](C)NC(=O)[C@H](CC(N)=O)NC(=O)[C@H](CCC(N)=O)NC(=O)[C@H](CCC(=O)O)NC(=O)[C@H](C)NC(=O)[C@H](CCCNC(=N)N)NC(=O)[C@H](CCC(=O)O)NC(=O)[C@H](CCCNC(=N)N)NC(=O)[C@H](CCC(N)=O)NC(=O)[C@H](CO)NC(=O)[C@H](CCC(N)=O)NC(=O)[C@@H](NC(=O)[C@H](CCCCN)NC(=O)[C@H](CCC(=O)O)NC(=O)[C@H](CC(C)C)NC(=O)[C@H](CCC(=O)O)NC(=O)[C@H](CC(C)C)NC(=O)[C@H](CC(C)C)NC(=O)[C@@H](NC(=O)[C@H](CCCNC(=N)N)NC(=O)[C@H](CC(C)C)NC(=O)[C@H](CC(C)C)NC(=O)[C@@H](NC(=O)[C@H](CC(C)C)NC(=O)[C@@H]1CCCN1C(=O)[C@H](CC(C)C)NC(=O)[C@H](CC(=O)O)NC(=O)[C@@H](NC(=O)[C@H](CO)NC(=O)[C@H](CC(C)C)NC(=O)[C@H](CO)NC(=O)[C@@H]1CCCN1C(=O)[C@H](CC(N)=O)NC(=O)[C@@H](N)CC(=O)O)[C@@H](C)CC)[C@@H](C)CC)[C@@H](C)O)[C@@H](C)O)C(=O)N[C@@H](Cc1ccccc1)C(=O)N[C@@H](CC(=O)O)C(=O)N[C@@H](CCCNC(=N)N)C(=O)N[C@H](C(N)=O)C(C)C` [compound 337] (H-DNPSLSIDLPLILLRTLLELEKTQSQRERAEQNARIFDRV-NH2; N-terminus assumed): the EC50 is 0.0239 µM on CRF2R and no less than 1 µM at CRF1R. Besides, the Emax at CRF2R came to 86.7%; at CRF1R, 36.5%.

By EC50 is commonly meant the concentration that produces a half-maximal response. Usually Emax stands for the maximal effect, on the per cent scale that the assay sets.
